Common to all, as to assay type: in vivo
Test [1] deals with Sheath blight (Rhizoctonia solani). The test is described as follows: Preventive effect by application against Sheath blight (foliar spray). The conditions noted are these: foliar spray before inoculation, ten-leave-stage rice. On the procedure: Preventive Effect by Application Against Sheat Blight (Rhizoctonia solani)
The wettable powders prepared according to the Formulation Examples which were diluted with water to a predetermined concentrations were sprayed to the stems and leaves of ten-leave-stage of rice plant (Kin-maze) cultivated in pots under flooding. After air-drying, the fungous nucleiof Sheath blight (Rhizoctonia solani) was inoculated at the root of the plant. After that, the plant was allowed to stand under humid conditions at 30° C. for one week, and then, the number of the disease lesion was determined to obtain the preventive index according to the criterion of Test Example 1.

The test system of test [2] is Blast (Pyricularia oryzae). The conditions noted are these: foliar spray before inoculation, rice plant (Kin-maze).
Test [3] relates to Helminthosporium leaf spot (Cochliobolus miyabeanus). Nature of the test: Preventive effect by application against Helminthosporium leaf spot (foliar spray). The conditions noted are these: foliar spray before inoculation, six-leave-stage rice.
The test system of test [4] is Blast (Pyricularia oryzae). The conditions noted are these: granules water-applied 7 days before inoculation.
The test system of test [5] is Blast (Pyricularia oryzae). The conditions noted are these: sprayed one day after inoculation.
Test [6] deals with Sheath blight (Rhizoctonia solani). Nature of the test: Preventive effect by paddy water application against Sheath blight. The conditions noted are these: water-applied 7 days before inoculation. On the procedure: Preventive Effect by Paddy Water Application Against Sheath Blight (Rhizoctonia solani)
By using pots of 1/8000 are, the compounds prepared according to the Formulations Examples which were diluted with water to a predetermined concentration were water-applied to ten-leave-stage rice plant (Kin-maze) cultivated under flooding. The treated pots were allowed to stand in a greenhouse for seven days, and the fungus nuclei of Sheath blight (Rhizoctonia solani) was inoculated at the root of the plant. Then, the plant was allowed to stand under humid conditions at 30° C. for one week, and then, the number of the disease lesion was determined to obtain the preventive index according to the criterion of Test Example 1.

Each structure is given as a SMILES string. Where two headings read alike, the source gives them in different places.

Results on 21 compounds are retold here after patent US6469059B1, “Fungicidal composition and method for disease control of paddy-rice plants” (BASF Aktiengesellschaft, priority 1999, dated 2002).

Take `OCC1=C[C@H](N[C@H]2C[C@H](CO)[C@@H](O[C@@H]3O[C@H](CO)[C@@H](O)[C@H](O)[C@H]3O)[C@H](O)[C@H]2O)[C@H](O)[C@@H](O)[C@@H]1O` [Compound 5, validamycin]: the Preventive index in test [1] (10 ppm active ingredient) is reported as 3 (Preventive value 60 to 84%); in test [2] (500 ppm active ingredient), 0.

For the compound `CNC(=O)/C(=N/OC)c1ccccc1Oc1ccccc1` [Compound 14, 2-methoxyimino-N-methyl-2-(2-phenoxy)phenyl-acetamide], the Preventive index in test [1] (50 ppm active ingredient), in test [3] (50 ppm active ingredient) and in test [4] (50 g/10a active ingredient) was 3 (Preventive value 60 to 84%) in each case. For `C[C@H]1O[C@H](O[C@H]2[C@H](O)[C@@H](O)[C@@H](O)[C@H](O)[C@@H]2O)[C@@H](N)C[C@@H]1NC(=N)C(=O)O` [Compound 19, kasugamycin], the Preventive index in test [5] (20 ppm active ingredient) is recorded as 4 (Preventive value 85 to 94%).

In the case of `Cc1nn(C)c(Cl)c1C(=O)Nc1cccc2c1COC2(C)C` [Compound 4, 5-chloro-1,3-dimethyl-N-(1,1-dimethyl-2-oxa-4-indanyl)pyrazole-4-carboxamide], in test [4] (200 g/10a active ingredient), the Preventive index came out at 0. As to `C/C(=N/Nc1nc(C)cc(C)n1)c1ccccc1C` [Compound 11, (Z)-2′-methylacetophenone 4,6-dimethylpyrimidin-2-ylhydrazone], the Preventive index in test [6] (10 g/10a active ingredient) and in test [3] (10 ppm active ingredient) was 3 (Preventive value 60 to 84%) each time. As for `CCOP(=O)(Sc1ccccc1)Sc1ccccc1` [Compound 16, O-ethyl-S,S-diphenyldithiophosphate], in test [2] (50 ppm active ingredient), the Preventive index was 3 (Preventive value 60 to 84%). Turning to `O=C(Nc1ccccc1)N(Cc1ccc(Cl)cc1)C1CCCC1` [Compound 6, 1-(4-chlorobenzyl)-1-cyclopentyl-3-phenylurea], the Preventive index in test [1] (10 ppm active ingredient) was 3 (Preventive value 60 to 84%); in test [2] (500 ppm active ingredient) it was 0. `Cc1c(Cl)cc(-c2ccc(=O)[nH]n2)cc1Cl` [Compound 7, 6-(3,5-dichloro-4-methylphenyl)-3(2H)-pyridazinone] gave a Preventive index in test [1] (10 ppm active ingredient) of 2. In the case of `C=CCOC1=NS(=O)(=O)c2ccccc21` [Compound 23, 3-allyloxy-1,2-benzoisothiazole-1,1-dioxide], the Preventive index in test [4] (50 g/10a active ingredient) is listed as 3 (Preventive value 60 to 84%). As to `CCCCC(C#N)(Cn1cncn1)c1ccc(Cl)cc1` (stereo not shown) [Compound 9, 2-p-chlorophenyl-2-(1H-1,2,4-triazol-1-ylmethyl)hexanenitrile], the Preventive index in test [6] (10 g/10a active ingredient) and in test [3] (10 ppm active ingredient) was 3 (Preventive value 60 to 84%) throughout. `CSC(=O)c1cccc2nnsc12` [Compound 24, S-methyl-benzo(1,2,3)-thiadiazole-7-carbothiolate]: the Preventive index in test [4] (50 g/10a active ingredient) is 3 (Preventive value 60 to 84%). Consider `CC(=O)O.CC(=O)O.CC(=O)O.N=C(N)NCCCCCCCCNCCCCCCCCNC(=N)N` [Compound 12, 1,1′-iminodi(octamethylene)diguanidinium triacetate], for which the Preventive index in test [6] (10 g/10a active ingredient) and in test [3] (10 ppm active ingredient) was 3 (Preventive value 60 to 84%) in each case. For `CC(Oc1ccc(Cl)cc1Cl)C(=O)NC(C)(C#N)C(C)C` (stereo not shown) [Compound A, N-(1-cyano-1,2-dimethylpropyl)-2-(2,4-dichlorophenoxy)propanamide], the Preventive index in test [6] (200 g/10a active ingredient) is given as 0; in test [1] (200 ppm active ingredient), 0; in test [3] (200 ppm active ingredient), 0; in test [4] (10 g/10a active ingredient), 3 (Preventive value 60 to 84%). In the case of `O=C1CCc2cccc3c2N1CC3` [Compound 22, 1,2,5,6-tetrahydropyrrolo(3,2,1-i,j)quinolin-4-one], the Preventive index in test [4] (10 g/10a active ingredient) was 4 (Preventive value 85 to 94%). As to `Cc1nc(C(F)(F)F)c(C(=O)Nc2c(Br)cc(OC(F)(F)F)cc2Br)s1` [Compound 3, N-(2,6-dibromo-4-trifluoromethoxyphenyl)-2-methyl-4-trifluoromethylthiazole-5-carboxamide], the Preventive index in test [1] (10 ppm active ingredient) was 3 (Preventive value 60 to 84%); in test [2] (500 ppm active ingredient), 0. For `CO/C=C(/C(=O)OC)c1ccccc1Oc1cc(Oc2ccccc2C#N)ncn1` [Compound 13, methyl (E)-2-{2-[6-(2-cyanophenoxy)pyrimidin-4-yloxy]phenyl}-3-methoxy-acrylate], the Preventive index in test [1] (10 ppm active ingredient), in test [3] (10 ppm active ingredient) and in test [4] (10 g/10a active ingredient) was 3 (Preventive value 60 to 84%) each time. Take `Cc1ccccc1C(=O)Nc1cccc(OC(C)C)c1` [Compound 2, 3′-isopropoxy-2-methylbenzanilide]: the figures for the Preventive index in test [1] (10 ppm active ingredient) and in test [2] (500 ppm active ingredient) were 2 and 0, respectively. Regarding `CC(C)NC(=O)N1CC(=O)N(c2cc(Cl)cc(Cl)c2)C1=O` [Compound 8, 3-(3,5-dichlorophenyl)-N-isopropyl-2,4-dioxoimidazolidine-1-carboxamide], the Preventive index in test [6] (10 g/10a active ingredient) and in test [3] (10 ppm active ingredient) was 3 (Preventive value 60 to 84%) in each case. Turning to `CCCCC(O)(Cn1cncn1)c1ccc(Cl)cc1Cl` (racemic) [Compound 10, (RS)-2-(2,4-dichlorophenyl)-1-(1H-1,2,4-triazol-1-yl)hexan-2-ol], the Preventive index in test [6] (10 g/10a active ingredient) and in test [3] (10 ppm active ingredient) was 3 (Preventive value 60 to 84%) in each case. Consider `CC(NC(=O)C(C#N)C(C)(C)C)c1ccc(Cl)cc1Cl` (stereo not shown) [Compound 21, N-[1-(2,4-dichlorophenyl)ethyl]-2-cyano-3,3-dimethylbuthaneamide], for which the Preventive index in test [2] (5 ppm active ingredient) was 4 (Preventive value 85 to 94%).

On to `CC(C)Oc1cccc(NC(=O)c2ccccc2C(F)(F)F)c1` [Compound 1, α,α,α-trifluoro-3′-isopropoxy-O-toluanilide], for which the Preventive index in test [1] (10 ppm active ingredient) is given as 3 (Preventive value 60 to 84%); in test [2] (500 ppm active ingredient) it was 0; in test [5] (200 ppm active ingredient) it was 0; in test [4] (200 g/10a active ingredient) it was 0.
